# Like-named read-outs stand apart in the source and are kept apart here.
# What was measured:
# [1] = molecular target: T1, OAT4 (Homo sapiens, UniProt Q9NSA0); experiment: MDCK-OAT4 TH uptake assay with 125I-T4 tracer; assay type: cell-based; conditions: 10 nM T4, 20 min; for 125I-T4 uptake compared to the vehicle control (range finding): single concentration 10 or 100 µM, below 80% = positive hit; for T4 uptake inhibition BMC20 (M), [CI]: concentration that inhibits 125I-T4 uptake by 20%, brackets = 95% CI
# T1 construct: V5 (from pLenti6/V5-DEST); expressed in transfected cells; host or cells: MDCK-1 (lentiviral transduction, blasticidin selection)
# T1 sequence (Q9NSA0 1-550): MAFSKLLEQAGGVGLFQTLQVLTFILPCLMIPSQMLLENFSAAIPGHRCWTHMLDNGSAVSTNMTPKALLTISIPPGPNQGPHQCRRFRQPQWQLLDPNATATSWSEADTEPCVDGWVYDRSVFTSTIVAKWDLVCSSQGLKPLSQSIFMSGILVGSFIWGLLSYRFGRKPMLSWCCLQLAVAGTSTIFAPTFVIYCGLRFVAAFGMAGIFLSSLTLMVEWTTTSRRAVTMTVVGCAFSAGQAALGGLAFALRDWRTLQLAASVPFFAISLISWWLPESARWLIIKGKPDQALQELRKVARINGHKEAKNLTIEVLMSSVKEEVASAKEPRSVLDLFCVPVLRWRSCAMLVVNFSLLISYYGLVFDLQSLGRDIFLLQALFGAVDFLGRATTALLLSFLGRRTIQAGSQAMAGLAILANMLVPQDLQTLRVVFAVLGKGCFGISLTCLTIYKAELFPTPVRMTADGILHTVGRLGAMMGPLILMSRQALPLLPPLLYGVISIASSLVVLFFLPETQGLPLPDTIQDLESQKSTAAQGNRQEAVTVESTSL
# Procedure: Subsequently OAT4 in pENTR™/D-TOPO® Vector was shuffled into the pLenti6/V5-DEST vector (Thermo Fisher) using Gateway™ LR Clonase™ II Enzyme mix (Thermo Fisher) according to the manufacture’s protocol.
# To generate an OAT4 stable cell line, MDCK-1 cells were plated in 12-well plates with full growth medium and transduced with fresh viral supernatants in the absence of antibiotics in medium. After 2 days, MDCK-1 cells transduced with OAT4 (MDCK-OAT4) or empty vector (MDCK-DEST) were selected in full growth medium supplemented with 2 µg/mL blasticidin and further maintained under blasticidin selection.
# (§1) MDCK-OAT4 and MDCK-DEST cells were cultured in DMEM:F12 (L-glutamine, 15 mM HEPES) (Gibco) supplemented with (100 µg/mL penicillin + 100 µg/mL streptomycin), 10% fetal calf serum (Gibco) and 2 µg/mL blasticidin (Sigma). CHO-K1 OATP1C1 or WT cells were cultured in F12 nutrient mix (Gibco) supplemented with (100 µg/mL penicillin + 100 µg/mL streptomycin), 10% fetal calf serum (Gibco) and […] G418 (Sigma). All cell cultures were incubated at 37 °C with 5% CO2 saturation until 80% confluency. MDCK-OAT4 and MDCK-DEST cells were seeded in 96 wells plate at a density of 4 × 10^5 cells in 100 µL medium per well and incubated for 24 h before the start of the MDCK-OAT4 TH uptake assay. CHO-K1 OATP1C1 and WT cells were seeded in 96 wells plate at a density of 3 × 10^5 cells in 100 µL medium per well 72 h before the CHO-K1 OATP1C1 TH uptake assay. Medium from CHO-K1 OATP1C1 or WT assay plates was changed to serum-free F12 medium containing 5 mM sodium-butyrate 24 h before start of the CHO-K1 OATP1C1 TH uptake assay to increase transfected expression of SV-40 promotor plasmids.
# (§2) Subsequently 10 µL of a tenfold stock of test compound in uptake buffer (solvent concentration 1% v/v) was added to each well. […] Cells were exposed at 37 °C for 20 min (MDCK-OAT4) or 30 min (CHO-K1 OATP1C1), unless stated differently. After exposure, cells were immediately washed with ice-cold PBS supplemented with 0.1% bovine serum albumin (BSA). Subsequently, cells were lysed in 50 µL of 0.1 M NaOH under continuous shaking at room temperature. After 20 min, cell lysates were manually transferred into separate 5 mL polypropylene tubes. One tube was also prepared with 10 µL of the T4 tracer solution. Radioactivity was measured in a Wizard^2 gamma counter (Perkin Elmer).
# For the CHO-K1 OATP1C1 TH uptake assay total of 29 chemicals (Table 1) were selected for the EDC screening based on available literature data. […] The same chemicals were selected for the MDCK-OAT4 TH uptake assay, with the exception of BPF, VRP and TCS. […] The THTMT TH uptake assay was then performed as described earlier. […] A concentration of 100 µM ICG was used as a reference chemical for OATP1C1 and 100 µM LESI for OAT4. At least three independent experiments were performed for each chemical. Each individual experiment contained three technical replicates of each control and concentration tested.
# (§3) Raw values were normalized to the total amount of radioactivity in the T4 tracer solution. These values were expressed as a percentage of total radioactivity added (or uptake percentage) and used for all further data analysis. Statistically significant differences between the T4 uptake of transfected and wild type cells, in the presence or absence of inhibitor, were determined by two-way ANOVA (α = 5%, two-sided). […] In brief, uptake values were normalized to the median response of the vehicle and positive controls for each plate. […] Statistical analysis were performed using GraphPad Prism version 8 for Windows (GraphPad Software, San Diego, California USA) and SAS 9.3 (SAS Institute, Cary NC).
# [2] = system: MDCK-OAT4 cells; experiment: CellTiter-Glo luminescent cell viability assay in MDCK-OAT4 cells; conditions: concentration that inhibits cell viability by 10%; MDCK-OAT4 cells, 20 min exposure
# Procedure: (§4) Cell viability was assessed through the quantitation of ATP present in cells using the commercially available CellTiter-Glo® luminescent cell viability assay and performed according to the manufacturer’s instruction (Promega, Leiden, the Netherlands). Briefly, cells were seeded as described earlier in opaque-walled clear-bottom 96 well plates. On the day of the experiment, each well was washed with 200 µL phosphate buffered saline (PBS) and exposed to 80 µL of uptake buffer, 10 µL of a tenfold stock of test compound solved in uptake buffer or control and 10 µL of T4 (final concentration 10 nM). 0.1% DMSO was used as a solvent control, while 10% DMSO was used as a positive control. After exposure for the indicated times similar to THTMT TH uptake assay, cells were immediately washed with ice-cold PBS + 0.1%BSA and exposed to 100 µL of the CellTiter-Glo® Reagent. Plates were then shaken on an orbital shaker for 2 min and left to incubate at room temperature for 10 min. Luminescence was measured on a BioTek Cytation 5 microplate reader. […] Each individual experiment was repeated at least twice and contained three technical replicates of each control and concentration tested.
# Figure S2. […] Blue dots indicate the plate medians from three or four independent experiments, all control and chemical concentrations were tested in triplicates per plate. The black line indicates the best-fit concentrations response curve, the dotted line the corresponding 95% confidence interval.
# [3] = system: CHO-K1 OATP1C1 cells; conditions: for Cytotoxicity IC10: concentration that inhibits cell viability by 10%, CHO-K1 OATP1C1 cells, 30 min exposure; for cytotoxic effects: at concentrations of the uptake assay, Figure S1
# Procedure: as §4
# Figure S1. […] Blue dots indicate the plate medians from three or four independent experiments, all control and chemical concentrations were tested in triplicates per plate.
# [4] = molecular target: T2, OATP1C1 (Homo sapiens, UniProt Q9NYB5); experiment: CHO-K1 OATP1C1 TH uptake assay with 125I-T4 tracer; assay type: cell-based
# T2 construct: host or cells: CHO-K1
# T2 sequence (Q9NYB5 1-712): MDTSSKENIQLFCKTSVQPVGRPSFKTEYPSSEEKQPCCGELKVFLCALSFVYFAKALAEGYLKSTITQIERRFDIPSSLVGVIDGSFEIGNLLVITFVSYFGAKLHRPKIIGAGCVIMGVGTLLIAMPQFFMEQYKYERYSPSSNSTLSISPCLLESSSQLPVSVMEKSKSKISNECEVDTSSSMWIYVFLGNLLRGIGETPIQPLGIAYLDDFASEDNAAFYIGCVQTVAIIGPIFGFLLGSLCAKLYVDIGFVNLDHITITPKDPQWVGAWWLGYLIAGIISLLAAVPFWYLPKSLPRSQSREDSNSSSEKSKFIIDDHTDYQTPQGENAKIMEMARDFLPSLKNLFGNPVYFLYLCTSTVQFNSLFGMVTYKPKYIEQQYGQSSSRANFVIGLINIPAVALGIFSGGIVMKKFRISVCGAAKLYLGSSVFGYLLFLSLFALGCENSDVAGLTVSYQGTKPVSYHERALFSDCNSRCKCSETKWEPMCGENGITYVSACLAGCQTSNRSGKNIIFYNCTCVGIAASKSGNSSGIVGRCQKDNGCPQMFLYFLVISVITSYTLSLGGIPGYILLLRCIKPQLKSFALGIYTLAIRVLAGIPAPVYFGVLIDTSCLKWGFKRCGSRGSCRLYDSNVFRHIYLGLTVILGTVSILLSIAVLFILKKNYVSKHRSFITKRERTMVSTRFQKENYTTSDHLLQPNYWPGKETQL
# Procedure: as §1, §2
# For the CHO-K1 OATP1C1 TH uptake assay total of 29 chemicals (Table 1) were selected for the EDC screening based on available literature data. […] The same chemicals were selected for the MDCK-OAT4 TH uptake assay, with the exception of BPF, VRP and TCS. […] The THTMT TH uptake assay was then performed as described earlier. […] A concentration of 100 µM ICG was used as a reference chemical for OATP1C1 and 100 µM LESI for OAT4. At least three independent experiments were performed for each chemical.
# as §3
# [5] = system: oatp1c1; parameters: method as in Westholm et al. (2009); conditions: T4 1 nM; ref Westholm et al. (2009); read-out: IC50 of T4 transmembrane transport inhibition; cited from earlier work
# [6] = concentration that inhibits 125I-T4 uptake by 20%, 10 nM T4, 30 min, brackets = 95% CI
compound,measurement,setting,value
"O=S(=O)(c1ccc(O)cc1)c1ccc(O)cc1 [Bisphenol S, Bisphenol-S]",125I-T4 uptake compared to the vehicle control (range finding),[1],≥ 80%
"O=C(O)CSc1nnc(Br)n1-c1ccc(C2CC2)c2ccccc12 [Lesinurad, reference compound]",Cytotoxicity IC10,[2],> 100 µM
same,Cytotoxicity IC10,[3],> 100 µM
same,"T4 uptake inhibition BMC20 (M), [CI]",[4]; [6],4.34E−07 [1.97E−07; 9.56E−07] M
"NC(Cc1cc(I)c(Oc2cc(I)c(O)c(I)c2)c(I)c1)C(=O)O (stereo not drawn) [T4, Thyroxine, reference compound]",uptake of 125I-T4 with excess of unlabeled T4,[4]; 1 µM unlabeled T4,quenched the uptake
"β-Estradiol-3-sulfate [ß-Estrone-3-sulfate, reference compound]","T4 uptake inhibition BMC20 (M), [CI]",[1],1.55E−06 [5.32E−07; 4.51E−06] M
same,125I-T4 uptake compared to the vehicle control (range finding),[1],below 80%
"[CH3][Hg][Cl] [MeHg, Methyl mercury]",125I-T4 uptake compared to the vehicle control (range finding),[1],≥ 80%
same,125I-T4 uptake compared to the vehicle control (range finding),"[4]; single concentration 10 or 100 µM, 10 nM T4, 30 min, below 80% = positive hit",≥ 80%
Oc1cc(Cl)ccc1Oc1ccc(Cl)cc1Cl [Triclosan],cytotoxic effects,[3],confounded by cytotoxic effects
same,Cytotoxicity IC10,[3],0.378 µM
same,"T4 uptake inhibition BMC20 (M), [CI]",[4],2.30E−06 [1.38E−06; 3.83E−06] M
"CC(C)(c1ccc(O)cc1)c1ccc(O)cc1 [Bisphenol A, Bisphenol-A]",cytotoxic effects,[3],confounded by cytotoxic effects
same,Cytotoxicity IC10,[3],4.34 µM
same,"T4 uptake inhibition BMC20 (M), [CI]",[4]; [6],1.90E−05 [1.28E−05; 2.83E−05] M
"O=C(O)Cc1ccccc1Nc1c(Cl)cccc1Cl [Diclofenac, reference compound]","T4 uptake inhibition BMC20 (M), [CI]",[1],3.22E−06 [6.39E−07; 1.62E−05] M
same,IC50,[5],4 µM
"Oc1ccc(C2(c3ccc(O)cc3)CCCCC2)cc1 [Bisphenol Z, Bisphenol-Z]",Cytotoxicity IC10,[3],> 100 µM
